Experimental data reported in patent publication US7709471B2, “Compounds” (AstraZeneca AB, priority 2006, dated 2010).
Counter-ions that a name gives are not always drawn. Like-named read-outs stand apart in the source and are kept apart here.

Legend:
recombinant Plk1 = recombinant Plk1 (Homo sapiens, UniProt P53350); experiment: In Vitro Plk1 Enzyme Assay (SPA, GST-Cdc25C phosphorylation); format: biochemical; conditions: ATP 64 nM, 90 minutes, read-out: IC50 (Plk1 enzyme inhibition)
[1] = system: human colon tumour cell line HT29; experiment: Cellular Assay (phosphohistone H3 Ser10 mitotic marker, HT29); format: cell-based; conditions: HT-29, 24 h, HT29 cells
[2] = read-out: IC50 (cellular assay, phosphohistone H3)

Chain of recombinant Plk1 (P53350 whole entry): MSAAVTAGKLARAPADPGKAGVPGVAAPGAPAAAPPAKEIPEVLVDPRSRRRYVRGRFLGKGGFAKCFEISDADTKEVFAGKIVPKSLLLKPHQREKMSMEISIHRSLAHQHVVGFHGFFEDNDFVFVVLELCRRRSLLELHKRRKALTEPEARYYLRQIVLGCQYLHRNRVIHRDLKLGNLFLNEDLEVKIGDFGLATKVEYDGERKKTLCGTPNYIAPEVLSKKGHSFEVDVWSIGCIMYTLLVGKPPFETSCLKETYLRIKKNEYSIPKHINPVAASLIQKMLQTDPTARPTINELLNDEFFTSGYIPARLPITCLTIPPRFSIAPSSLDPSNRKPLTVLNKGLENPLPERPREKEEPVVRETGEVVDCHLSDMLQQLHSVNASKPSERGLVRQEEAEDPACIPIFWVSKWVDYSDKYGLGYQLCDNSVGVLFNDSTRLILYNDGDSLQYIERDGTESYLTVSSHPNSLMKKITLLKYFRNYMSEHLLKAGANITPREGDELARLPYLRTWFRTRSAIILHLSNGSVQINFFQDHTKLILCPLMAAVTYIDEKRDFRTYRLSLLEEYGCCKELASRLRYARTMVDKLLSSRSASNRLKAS

Row | SMILES | IC50 (recombinant Plk1) | IC50 [1, 2] | IC50 ([1]; read-out: Cell IC50)
1 | CCC1CN(C2CCCC2)c2nc(Nc3ccc(C(=O)NC4CCN(C)CC4)cc3OC)ncc2N(C)C1=O (single isomer, unassigned) [Example 236] | < 0.3 µM | < 0.3 µM | 
2 | COc1cc(C(=O)NC2CCN(C)CC2)ccc1Nc1ncc2c(n1)N(C1CCCC1)CCCN2C [Example 4, 4-[(2-Cyclopentyl-6-methyl-2,6,9,11-tetrazabicyclo[5.4.0]undeca-8,10,12-trien-10-yl)amino]-3-methoxy-N-(1-methyl-4-piperidyl)benzamide] | < 100 µM | < 1 µM | 
3 | COc1cc(C(=O)NC2CCN(C)CC2)ccc1Nc1ncc2c(n1)N(C(C)C)CCC(=O)N2C [Example 6, 3-Methoxy-4-[(6-methyl-5-oxo-2-propan-2-yl-2,6,9,11-tetrazabicyclo[5.4.0]undeca-7,9,11-trien-10-yl)amino]-N-(1-methyl-4-piperidyl)benzamide] | < 0.3 µM | < 0.3 µM | 
4 | COc1cc(C(=O)NC2CCN(C3CC3)CC2)ccc1Nc1ncc2c(n1)N(C1CCCC1)CCC(=O)N2C [Example 11, 4-[(6-cyclopentyl-2-methyl-3-oxo-2,6,8,10-tetrazabicyclo[5.4.0]undeca-8,10,12-trien-9-yl)amino]-N-(1-cyclopropyl-4-piperidyl)-3-methoxy-benzamide] | < 0.3 µM | < 0.3 µM | 
5 | COc1cc(C(=O)NCCN(C)C)ccc1Nc1ncc2c(n1)N(C1CCCC1)CCC(=O)N2C [Example 14, 4-[(6-cyclopentyl-2-methyl-3-oxo-2,6,8,10-tetrazabicyclo[5.4.0]undeca-8,10,12-trien-9-yl)amino]-N-(2-dimethylaminoethyl)-3-methoxy-benzamide] | < 0.3 µM | < 0.3 µM | 0.092 µM
6 | CCN1CCCC1CNC(=O)c1ccc(Nc2ncc3c(n2)N(C2CCCC2)CCC(=O)N3C)c(OC)c1 (stereo not drawn) [Example 15, 4-[(6-cyclopentyl-2-methyl-3-oxo-2,6,8,10-tetrazabicyclo[5.4.0]undeca-8,10,12-trien-9-yl)amino]-N-[(1-ethylpyrrolidin-2-yl)methyl]-3-methoxy-benzamide] | < 0.3 µM | < 0.3 µM | 
7 | O=C1CCN(c2ccccc2)c2nc(Nc3ccc(C(=O)NCCN4CCOCC4)cc3)ncc2N1 [Example 249, N-(2-morpholin-4-ylethyl)-4-[(3-oxo-6-phenyl-2,6,8,10-tetrazabicyclo[5.4.0]undeca-7,9,11-trien-9-yl)amino]benzamide] | < 100 µM |  | 
8 | COc1cc(C(=O)NC2CCN(C)CC2)ccc1Nc1ncc2c(n1)N(c1ccccc1)CCC(=O)N2 [Example 251, 3-methoxy-N-(1-methyl-4-piperidyl)-4-[(3-oxo-6-phenyl-2,6,8,10-tetrazabicyclo[5.4.0]undeca-8,10,12-trien-9-yl)amino]benzamide] | < 100 µM |  | 
9 | CN1CCC(NC(=O)c2ccc(Nc3ncc4c(n3)N(C3CCCC3)CCC(=O)N4)cc2)CC1 [Example 254, 4-[(6-cyclopentyl-3-oxo-2,6,8,10-tetrazabicyclo[5.4.0]undeca-8,10,12-trien-9-yl)amino]-N-(1-methyl-4-piperidyl)benzamide] | < 100 µM |  | 
10 | CN1CCC(NC(=O)c2csc(Nc3ncc4c(n3)N(C3CCCC3)CCC(=O)N4C)n2)CC1 [Example 261, 2-[(6-cyclopentyl-2-methyl-3-oxo-2,6,8,10-tetrazabicyclo[5.4.0]undeca-8,10,12-trien-9-yl)amino]-N-(1-methyl-4-piperidyl)1,3-thiazole-4-carboxamide] | < 100 µM |  | 
11 | CN1C(=O)CCN(C2CCCC2)c2nc(Nc3ccc(Cl)nc3)ncc21 [Example 266, 9-[(6-chloropyridin-3-yl)amino]-6-cyclopentyl-2-methyl-2,6,8,10-tetrazabicyclo[5.4.0]undeca-8,10,12-trien-3-one] | < 100 µM |  | 
12 | COc1ccc(Nc2ncc3c(n2)N(C2CCCC2)CCC(=O)N3C)cn1 [Example 267, 6-cyclopentyl-9-[(6-methoxypyridin-3-yl)amino]-2-methyl-2,6,8,10-tetrazabicyclo[5.4.0]undeca-8,10,12-trien-3-one] | < 1 µM |  | 
13 | COc1cc(C(=O)NC2CCN(C)CC2)ccc1Nc1ncc2c(n1)N(Cc1c(C)noc1C)CCC(=O)N2C [Example 273, 4-[[2-[(3,5-dimethyl-1,2-oxazol-4-yl)methyl]-6-methyl-5-oxo-2,6,9,11-tetrazabicyclo[5.4.0]undeca-7,9,11-trien-10-yl]amino]-3-methoxy-N-(1-methyl-4-piperidyl)benzamide] | < 100 µM |  | 
14 | COc1cc(C(=O)NC2CCCCC2)ccc1Nc1ncc2c(n1)N(CCN1CCCCC1)CCC(=O)N2C [Example 276, N-cyclohexyl-3-methoxy-4-[[6-methyl-5-oxo-2-[2-(1-piperidyl)ethyl]-2,6,9,11-tetrazabicyclo[5.4.0]undeca-7,9,11-trien-10-yl]amino]benzamide] | < 100 µM |  | 

Results, then the compound that gave them:

Row | IC50 (recombinant Plk1) | IC50 [1, 2] | IC50 ([1]; read-out: Cell IC50) | SMILES
15 | < 1 µM | < 1 µM |  | CCCC1CN(C2CCCC2)c2nc(Nc3ccc(C(=O)NC4CCN(C)CC4)cc3OC)ncc2N(C)C1=O (single isomer, unassigned) [Example 238]
16 | < 0.3 µM | < 0.3 µM |  | COc1cc(C(=O)NC2CCN(C)CC2)ccc1Nc1ncc2c(n1)N(C1CCCC1)CC(C)C(=O)N2C (single isomer, unassigned) [Example 240]
17 | < 0.3 µM | < 30 µM |  | COc1cc(C(=O)NC2CCN(C)CC2)ccc1Nc1ncc2c(n1)N(C)CCC(=O)N2C [Example 5, 4-[(2,6-Dimethyl-5-oxo-2,6,9,11-tetrazabicyclo[5.4.0]undeca-7,9,11-trien-10-yl)amino]-3-methoxy-N-(1-methyl-4-piperidyl)benzamide]
18 | < 1 µM | < 1 µM |  | COc1cc(C(=O)NC2CCN(C)CC2)ccc1Nc1ncc2c(n1)N(CCC(C)C)CCC(=O)N2C [Example 7, 3-Methoxy-4-[[6-methyl-2-(3-methylbutyl)-5-oxo-2,6,9,11-tetrazabicyclo[5.4.0]undeca-7,9,11-trien-10-yl]amino]-N-(1-methyl-4-piperidyl)benzamide]
19 | < 0.3 µM | < 0.3 µM |  | COc1cc(C(=O)NCC(C)(C)CN(C)C)ccc1Nc1ncc2c(n1)N(C1CCCC1)CCC(=O)N2C [Example 10, 4-[(2-Cyclopentyl-6-methyl-5-oxo-2,6,9,11-tetrazabicyclo[5.4.0]undeca-8,10,12-trien-10-yl)amino]-N-(3-dimethylamino-2,2-dimethyl-propyl)-3-methoxy-benzamide hydrochloride]
20 | < 0.3 µM | < 0.3 µM |  | COc1cc(C(=O)NCCN2CCOCC2)ccc1Nc1ncc2c(n1)N(C1CCCC1)CCC(=O)N2C [Example 13, 4-[(6-cyclopentyl-2-methyl-3-oxo-2,6,8,10-tetrazabicyclo[5.4.0]undeca-8,10,12-trien-9-yl)amino]-3-methoxy-N-(2-morpholin-4-ylethyl)benzamide]
21 | < 1 µM |  |  | CN(C)CC(C)(C)CNC(=O)c1ccc(Nc2ncc3c(n2)N(c2ccccc2)CCC(=O)N3C)c(Cl)c1 [Example 225, 3-chloro-N-(3-dimethylamino-2,2-dimethyl-propyl)-4-[(2-methyl-3-oxo-6-phenyl-2,6,8,10-tetrazabicyclo[5.4.0]undeca-8,10,12-trien-9-yl)amino]benzamide]
22 | < 1 µM |  |  | CN1C(=O)CCN(c2ccccc2)c2nc(Nc3ccc(C(=O)NCCN4CCOCC4)cc3Cl)ncc21 [Example 226, 3-chloro-4-[(2-methyl-3-oxo-6-phenyl-2,6,8,10-tetrazabicyclo[5.4.0]undeca-8,10,12-trien-9-yl)amino]-N-(2-morpholin-4-ylethyl)benzamide]
23 | < 100 µM |  |  | O=C1CCN(c2ccccc2)c2nc(Nc3ccc(C(=O)NCCN4CCOCC4)cc3Cl)ncc2N1 [Example 247, 3-chloro-N-(2-morpholin-4-ylethyl)-4-[(3-oxo-6-phenyl-2,6,8,10-tetrazabicyclo[5.4.0]undeca-7,9,11-trien-9-yl)amino]benzamide]
24 | < 1 µM |  |  | COc1cc(C(=O)NCCN2CCOCC2)ccc1Nc1ncc2c(n1)N(C1CCCC1)CCC(=O)N2 [Example 250, 4-[(6-cyclopentyl-3-oxo-2,6,8,10-tetrazabicyclo[5.4.0]undeca-8,10,12-trien-9-yl)amino]-3-methoxy-N-(2-morpholin-4-ylethyl)benzamide]
25 | < 100 µM |  |  | CN(C)CC(C)(C)CNC(=O)c1ccc(Nc2ncc3c(n2)N(C2CCCC2)CCC(=O)N3)c(Cl)c1 [Example 255, 3-chloro-4-[(6-cyclopentyl-3-oxo-2,6,8,10-tetrazabicyclo[5.4.0]undeca-8,10,12-trien-9-yl)amino]-N-(3-dimethylamino-2,2-dimethyl-propyl)benzamide]
26 | < 100 µM |  |  | COCC(C)N1CCC(=O)Nc2cnc(Nc3ccc(C(=O)NC4CCN(C)CC4)cc3OC)nc21 (stereo not drawn) [Example 258, 3-methoxy-4-[[6-(1-methoxypropan-2-yl)-3-oxo-2,6,8,10-tetrazabicyclo[5.4.0]undeca-7,9,11-trien-9-yl]amino]-N-(1-methyl-4-piperidyl)benzamide]
27 | < 1 µM |  |  | CCN1C(=O)CCN(C2CCCC2)c2nc(Nc3ccc(C(=O)NC4CCN(C)CC4)cc3OC)ncc21 [Example 259, 4-[(6-cyclopentyl-2-ethyl-3-oxo-2,6,8,10-tetrazabicyclo[5.4.0]undeca-8,10,12-trien-9-yl)amino]-3-methoxy-N-(1-methyl-4-piperidyl)benzamide]
28 | < 1 µM |  |  | Cc1nc(Nc2ncc3c(n2)N(C2CCCC2)CCC(=O)N3C)sc1C(=O)NC1CCN(C)CC1 [Example 262, 2-[(6-cyclopentyl-2-methyl-3-oxo-2,6,8,10-tetrazabicyclo[5.4.0]undeca-8,10,12-trien-9-yl)amino]-4-methyl-N-(1-methyl-4-piperidyl)1,3-thiazole-5-carboxamide]
29 | < 100 µM |  |  | CN1C(=O)CCN(C2CCCC2)c2nc(Nc3ccncc3)ncc21 [Example 268, 6-cyclopentyl-2-methyl-9-(pyridin-4-ylamino)-2,6,8,10-tetrazabicyclo[5.4.0]undeca-8,10,12-trien-3-one]
